# Legend:
# Assay type in all cases: cell-based
# [1] = test system: mouse ES cell; test: Gene expression analysis by RT-PCR (Example 7(3)); settings: mouse ES cell treated with 80 μM for 5 days
# Experimental: Differentiation of a mouse ES cell was induced similarly to the above (1) except that the cell was treated with 80 μM of the examined compound 4 for 5 days. From the obtained cell, total RNA was extracted using TRIzol reagent. Using the total RNA, cDNA was synthesized by an ordinary method. A polymerase chain reaction was carried out using the synthesized cDNA as a template and each primer of Oct3/4▪Nanog—a marker of an undifferentiated cell, Nestin—a marker of a neural stem cell, Sox9▪Sox10▪Slug—a marker of a neural crest cell, GATA2—a marker of a mesoderm, Sca-1—a marker of a stem cell, and c-kit—a marker of a hematopoietic stem cell for analyzing the expression of each marker. In addition, for comparison, the expression was similarly analyzed with respect to an undifferentiated mouse ES cell and an embryoid body obtained by culturing a mouse ES cell for 3 days.
# [2] = test system: mouse ES cells (AB2-2); test: Induction of differentiation of mouse ES cell, change of morphology (Example 7(1)); settings: minimum concentration at which the change of the morphology was observed; embryoid bodies from mouse ES cells, 25 to 100 μM, cultured 4 days, hematoxylin staining
# Experimental: The culture medium was added to a petri dish having a diameter of 60 mm. Further, 1 10^6 mouse ES cells (AB2-2) which were obtained from Dr. Alan Bradley in The Wellcome Trust Sanger Institute were added thereto, and incubated under 5% CO2 atmosphere at 37° C. for 1 day. Then, the cells were separated using a glass pipet and added to the same petri dish again, and incubated under 5% CO2 atmosphere at 37° C. for 3 days to form embryoid bodies.
# Then, the above cultured cell dispersion (100 μL) was added to 96 well plate which was coated with collagen type 1, and was incubated under 5% CO2 atmosphere at 37° C. overnight. Separately, each examined compound was dissolved in a culture medium which was obtained by removing […] and a leukemia inhibitory factor from an ES culture medium and which was used for inducing a differentiation, and the solutions were added each well so that the final concentrations were 25 to 100 μM. As examined compounds, compounds which were synthesized by similar methods to Examples 1 to 6 in addition to the compounds synthesized in Examples 1 to 6 were used. […] In addition, fetal bovine serum was added at a final concentration of 5% and bFGF: basic fibroblast growth factor was added at a final concentration of 2 ng/mL to each well, and the cells were cultured in an adhesive state under 5% CO2 atmosphere at 37° C. for 4 days.
# After the above culture, paraformaldehyde was added to each well at a final concentration of 2% to fix the cells. The cells were stained with hematoxylin, and the change of the morphology thereof was observed using an optical microscope. As control, only dimethylsulfoxide was added at a final concentration of 0.5% without adding the examined compound. […] In addition, the minimum concentrations of each examined compound at which the change of the morphology was observed are summarized in Table 2.
# [3] = test system: mouse ES cells (AB2-2); test: Induction of differentiation of mouse ES cell, morphology (Example 10); settings: 50 μM, 4 days, hematoxylin staining, optical microscope
# Experimental: A culture medium to induce an embryoid bodies used in Example 7 (4 mL) was added to a petri dish having a diameter of 60 mm. Further, 10^6 mouse ES cells (AB2-2) were added thereto, and incubated under 5% CO2 atmosphere at 37° C. for 3 days. The obtained embryoid was added into a […] volume tube. The above petri dish was washed by adding 1 PBS (5 mL), and the PBS was added into the above tube. The half quantity of the obtained cells was transferred to a separate tube, and the tube was stood still at room temperature for 5 minutes. After the supernatant was removed, an NP medium (10.5 mL) used in Example 7 was added. The cells were dispersed well, and the mixture was added to each well of a 96 well plate which was coated with collagen in an amount of 100 μL. The cells were incubated under 5% CO2 atmosphere at 37° C. overnight.
# In DMSO, 3,4-dihydroxybenzonitrile (manufactured by Tokyo Chemical Industry Co., Ltd.) was dissolved. The solution was added to each well so that the total amount became 200 μL in a final concentration of 12.5 μM, 25 μM or […]. Further, blood serum and bFGF: basic fibroblast growth factor were added to each well respectively in final concentrations of 5% and 10 ng/mL, and the cells were cultured under 5% CO2 atmosphere at 37° C. for 4 days.
# After the cultivation, 100 μL of the culture medium was removed from each well. […]
# [4] = test system: mouse ES cells (AB2-2); test: Combinational effect with retinoic acid, cell count (Example 9); settings: 4 days; for number of the nervous system cells: average of four experiments
# Experimental: The culture medium was added to a petri dish having a diameter of 60 mm. Further, 1 10^6 mouse ES cells (AB2-2) which were obtained from Dr. Alan Bradley in The Wellcome Trust Sanger Institute were added thereto, and incubated under 5% CO2 atmosphere at 37° C. for 1 day. Then, the cells were separated using a glass pipet and added to the same petri dish again, and incubated under 5% CO2 atmosphere at 37° C. for 3 days to form embryoid bodies. […] Then, the above cultured cell dispersion ([…]) was added to 96 well plate which was coated with collagen type I, and was incubated under 5% CO2 atmosphere at 37° C. overnight. On the next day, the examined compound 5 only or with retinoic acid in combination in each final concentration of 10 nM was added thereto, and the cells were incubated in adhesive state under 5% CO2 atmosphere at 37° C. for 4 days. After the incubation, the cells were washed with PBS, and separated using 0.25% Trypsin. The number of the cells was counted. This experiment was carried out four times, and the average of the counted numbers was obtained. […] In the FIG. 7, “RA” represents retinoic acid.
compound,measurement,setting,value
"2-(2,3-Dihydroxyphenyl)thiazole-4-carboxylic acid [examined compound 3]",Slug expression (marker of a neural crest cell),[1],remarkably expressed
same,Sox9 expression (marker of a neural crest cell),[1],expressed
same,Sox10 expression (marker of a neural crest cell),[1],expressed
same,Minimum inhibitory concentration,[2],70 μ M 70 μ M
"N#Cc1ccc(O)c(O)c1 [3,4-dihydroxybenzonitrile]",change of the cells' morphology,[3],nervous system cells which had cell processes all around were observed
"COC(=O)c1cc(O)c(O)c(O)c1 [Example 5, Methyl 3,4,5-trihydroxybenzoate]",number of the nervous system cells,"[4]; compound only, final concentration 10 nM",1.71±0.51 10^6
same,increase of the number of nervous system cells with retinoic acid in combination versus compound only,[4]; each final concentration 10 nM,about 1.89 times
same,number of the nervous system cells,"[4]; in combination with retinoic acid, each final concentration 10 nM",3.23±0.42 10^6
"O=C(O)c1csc(-c2cccc(OCc3ccccc3)c2OCc2ccccc2)n1 [examined compound 1, 2-{2,3-Bis(benzyloxy)phenyl}thiazole-4-carboxylic acid]",Minimum effective concentration for morphology change,[2],50 μ M
"O=C(O)[C@@H]1CSC(c2cccc(OCc3ccccc3)c2OCc2ccccc2)=N1 [examined compound 2, (R)-2-{2,3-Bis(benzyloxy)phenyl}-4,5-dihydrothiazole-4-carboxylic acid]",Minimum effective concentration for morphology change,[2],100 μ M
